The NIST ThermoML archive (doi:10.1021/je050020m)

Test: xn = mol fraction of the nth substance listed
Details: Liquid, Vibrating tube method

CCCCCCCCCC [decane] + O=C=O
Details | mass density [kg/m3]
332.94 K, 23010 kPa, x2 = 0.9663 | 775.39
332.94 K, 23014 kPa, x2 = 0.0551 | 721.3
332.94 K, 24016 kPa, x2 = 0.9663 | 784.64
332.94 K, 24025 kPa, x2 = 0.2369 | 730.17
332.94 K, 24026 kPa, x2 = 0.4536 | 743.58
332.94 K, 24057 kPa, x2 = 0.0551 | 722.11
332.94 K, 25006 kPa, x2 = 0.9663 | 793.1
332.94 K, 25022 kPa, x2 = 0.4536 | 744.71
332.94 K, 25028 kPa, x2 = 0.2369 | 731.08
332.94 K, 25048 kPa, x2 = 0.0551 | 722.92
342.79 K, 13528 kPa, x2 = 0.9663 | 503.61
342.79 K, 14029 kPa, x2 = 0.9663 | 528.33
342.79 K, 15026 kPa, x2 = 0.9663 | 569.49
342.79 K, 16019 kPa, x2 = 0.9663 | 603.24
342.79 K, 17025 kPa, x2 = 0.9663 | 631.6
342.79 K, 18035 kPa, x2 = 0.9663 | 657.54
342.79 K, 19000 kPa, x2 = 0.9663 | 674.01
342.79 K, 20022 kPa, x2 = 0.9663 | 691.29
342.79 K, 21024 kPa, x2 = 0.9663 | 706.16
342.79 K, 22022 kPa, x2 = 0.9663 | 719.34
342.79 K, 23022 kPa, x2 = 0.9663 | 731.24
342.79 K, 24017 kPa, x2 = 0.9663 | 741.98
342.79 K, 25006 kPa, x2 = 0.9663 | 751.96
342.84 K, 13020 kPa, x2 = 0.8114 | 721.51
342.84 K, 14001 kPa, x2 = 0.8114 | 726.31
342.84 K, 15022 kPa, x2 = 0.8114 | 730.92
342.84 K, 16041 kPa, x2 = 0.8114 | 735.26
342.84 K, 17013 kPa, x2 = 0.8114 | 739.14
342.84 K, 18018 kPa, x2 = 0.8114 | 742.96
342.84 K, 19020 kPa, x2 = 0.8114 | 746.57
342.84 K, 20008 kPa, x2 = 0.8114 | 749.98
342.84 K, 21023 kPa, x2 = 0.8114 | 753.35
342.84 K, 22003 kPa, x2 = 0.8114 | 756.46
342.84 K, 23041 kPa, x2 = 0.8114 | 759.67
342.84 K, 24026 kPa, x2 = 0.8114 | 762.58
342.84 K, 25034 kPa, x2 = 0.8114 | 765.48
342.86 K, 2043 kPa, x2 = 0.0551 | 694.82
342.86 K, 3006 kPa, x2 = 0.0551 | 695.92
342.86 K, 4043 kPa, x2 = 0.0551 | 696.93
342.86 K, 5044 kPa, x2 = 0.0551 | 697.98
342.86 K, 6046 kPa, x2 = 0.0551 | 699.02
342.86 K, 6984 kPa, x2 = 0.0551 | 699.98
342.86 K, 8003 kPa, x2 = 0.0551 | 701
342.86 K, 8999 kPa, x2 = 0.0551 | 702.09
342.86 K, 10007 kPa, x2 = 0.0551 | 702.98
342.86 K, 11044 kPa, x2 = 0.0551 | 703.97
342.86 K, 11996 kPa, x2 = 0.0551 | 704.89
342.86 K, 13021 kPa, x2 = 0.0551 | 705.84
342.86 K, 13997 kPa, x2 = 0.0551 | 706.74
342.86 K, 15043 kPa, x2 = 0.0551 | 707.69
342.86 K, 16022 kPa, x2 = 0.0551 | 708.54
342.86 K, 17001 kPa, x2 = 0.0551 | 709.54
342.86 K, 17984 kPa, x2 = 0.0551 | 710.28
342.86 K, 19042 kPa, x2 = 0.0551 | 711.19
342.86 K, 20017 kPa, x2 = 0.0551 | 712.03
342.86 K, 21054 kPa, x2 = 0.0551 | 713.1
342.86 K, 22022 kPa, x2 = 0.0551 | 713.72
342.86 K, 23029 kPa, x2 = 0.0551 | 714.55
342.86 K, 24018 kPa, x2 = 0.0551 | 715.37
342.86 K, 25025 kPa, x2 = 0.0551 | 716.21
342.87 K, 5031 kPa, x2 = 0.2369 | 702.48
342.87 K, 6026 kPa, x2 = 0.2369 | 703.7
342.87 K, 7027 kPa, x2 = 0.4536 | 711.28
342.87 K, 7029 kPa, x2 = 0.2369 | 704.93
342.87 K, 8006 kPa, x2 = 0.2369 | 706.09
342.87 K, 8024 kPa, x2 = 0.4536 | 712.92
342.87 K, 9027 kPa, x2 = 0.4536 | 714.5
